# From publication PMC9956102, “Structural Insights on Hyp-Gly-Containing Peptides as Antiplatelet Compounds through Topomer CoMFA and CoMSIA Analysis” (Foods, 2023)
# Where a name gives a salt, the structure may show the parent alone. Peptide text beside a SMILES is read from it.
# System: ADP-induced platelet aggregation
# Assay: not given
# Assay type: cell-based, rat
# Details: not given
# Description: The platelet was isolated from rat aorta blood and mixed with sodium citrate (1:9, v/v) as previously described with some modifications. Briefly, anticoagulated blood was centrifuged (50× g, 10 min) to obtain platelet-rich plasma (PRP). The residue was centrifuged at 750× g for 10 min to collect the platelet-poor plasma (PPP), and PRP was diluted to 2–3 × 10^8 with PPP.
# Inhibition of platelet aggregation induced by ADP was measured with a four-channel aggregometer as previously described. Aliquots of 270 μL of PRP were incubated with 30 μL of PPP or peptides with different concentrations at 37 °C for 5 min. After incubation, platelet aggregation was induced by adding 30 μL of ADP (0.1 mM). The platelet aggregation at 5 min was recorded, and the inhibition rate was calculated as follows. Inhibition of platelet aggregation (%) = [1 − platelet aggregation (sample)/platelet aggregation (control)] × 100
# The IC50 value of platelet aggregation was calculated by Graphpad Prism 6.0.
row,Compound,IC50 [µM]
1,N[C@@H](CC(=O)O)C(=O)N1C[C@H](O)C[C@H]1C(=O)NCC(=O)N[C@@H](CCC(=O)O)C(=O)O [DOGE] (HELM PEPTIDE1{D.[Hyp].G.E}$$$$V2.0),661
2,"N[C@@H](CCC(=O)O)C(=O)N1C[C@H](O)C[C@H]1C(=O)NCC(=O)N[C@@H](CCC(=O)O)C(=O)O [EOGE, Glu-Hyp-Gly-Glu] (HELM PEPTIDE1{E.[Hyp].G.E}$$$$V2.0)",390
3,N[C@@H](CCC(=O)O)C(=O)N1C[C@H](O)C[C@H]1C(=O)NCC(=O)O [EOG] (HELM PEPTIDE1{E.[Hyp].G}$$$$V2.0; N-terminus and C-terminus assumed),395
4,NCC(=O)N[C@@H](CCC(=O)O)C(=O)N1C[C@H](O)C[C@H]1C(=O)NCC(=O)O [GEOG] (HELM PEPTIDE1{G.E.[Hyp].G}$$$$V2.0),878
5,NCC(=O)N1C[C@H](O)C[C@H]1C(=O)N1C[C@H](O)C[C@H]1C(=O)NCC(=O)N1CCC[C@H]1C(=O)N[C@@H](CCC(N)=O)C(=O)O [GOOGPQ] (HELM PEPTIDE1{G.[Hyp].[Hyp].G.P.Q}$$$$V2.0; N-terminus and C-terminus assumed),2080
6,CSCC[C@H](NC(=O)[C@@H]1CCCN1C(=O)CNC(=O)[C@@H]1CCCN1C(=O)[C@@H]1C[C@@H](O)CN1C(=O)CN)C(=O)O [GOPGPM] (HELM PEPTIDE1{G.[Hyp].P.G.P.M}$$$$V2.0; N-terminus and C-terminus assumed),5340
7,O=C(O)C[C@H](NC(=O)CNC(=O)[C@@H]1C[C@@H](O)CN1)C(=O)O [OGD] (HELM PEPTIDE1{[Hyp].G.D}$$$$V2.0; N-terminus and C-terminus assumed),435
8,O=C(O)CC[C@H](NC(=O)CNC(=O)[C@@H]1C[C@@H](O)CN1)C(=O)O [OGE] (HELM PEPTIDE1{[Hyp].G.E}$$$$V2.0; N-terminus and C-terminus assumed),620
9,CSCC[C@H](NC(=O)[C@@H]1C[C@@H](O)CN1C(=O)CNC(=O)[C@@H]1C[C@@H](O)CN1)C(=O)NCC(=O)O [OGOMG] (HELM PEPTIDE1{[Hyp].G.[Hyp].M.G}$$$$V2.0; N-terminus and C-terminus assumed),1490
10,O=C(NCC(=O)N1CCC[C@H]1C(=O)O)[C@@H]1C[C@@H](O)CN1 [OGP] (HELM PEPTIDE1{[Hyp].G.P}$$$$V2.0; N-terminus and C-terminus assumed),506
11,NC(=O)CC[C@H](NC(=O)CNC(=O)[C@@H]1C[C@@H](O)CN1)C(=O)O [OGQ] (HELM PEPTIDE1{[Hyp].G.Q}$$$$V2.0; N-terminus and C-terminus assumed),760
12,C[C@H](NC(=O)[C@H](CO)NC(=O)CNC(=O)[C@@H]1C[C@@H](O)CN1)C(=O)O [OGSA] (HELM PEPTIDE1{[Hyp].G.S.A}$$$$V2.0),630
13,O=C(O)CC[C@H](NC(=O)[C@H](CO)NC(=O)CNC(=O)[C@@H]1C[C@@H](O)CN1)C(=O)O [OGSE] (HELM PEPTIDE1{[Hyp].G.S.E}$$$$V2.0),558

# Now from value to compound:
row,IC50 [µM],Compound
1,1420,O=C(O)CNC(=O)[C@@H]1C[C@@H](O)CN1 [OG] (HELM PEPTIDE1{[Hyp].G}$$$$V2.0)
2,317,O=C(O)CC[C@H](NC(=O)CNC(=O)[C@@H]1C[C@@H](O)CN1C(=O)[C@H](CCC(=O)O)NC(=O)CNC(=O)[C@@H]1CCCN1)C(=O)O [PGEOGE] (HELM PEPTIDE1{P.G.E.[Hyp].G.E}$$$$V2.0; N-terminus and C-terminus assumed)
3,857,O=C(O)CC[C@H](NC(=O)CNC(=O)[C@@H]1CCCN1)C(=O)N1C[C@H](O)C[C@H]1C(=O)NCC(=O)O [PGEOG] (HELM PEPTIDE1{P.G.E.[Hyp].G}$$$$V2.0; N-terminus and C-terminus assumed)
4,927,O=C(O)CC[C@H](NC(=O)CNC(=O)[C@@H]1CCCN1)C(=O)O [PGE] (H-Pro-Gly-Glu-OH; N-terminus and C-terminus assumed)
5,1400,O=C(CNC(=O)[C@@H]1CCCN1)N[C@@H](Cc1c[nH]cn1)C(=O)N[C@@H](Cc1c[nH]cn1)C(=O)O [PGHH]
6,2570,NCCCC[C@H](NC(=O)CNC(=O)[C@@H]1CCCN1)C(=O)N1CCC[C@H]1C(=O)O [PGKP] (H-PGKP-OH)
7,2790,NCCCC[C@H](NC(=O)[C@@H]1CCCN1C(=O)CNC(=O)[C@@H]1CCCN1)C(=O)O [PGPK] (H-PGPK-OH)
8,3560,NC(=O)CC[C@H](NC(=O)[C@@H]1CCCN1C(=O)CNC(=O)[C@@H]1CCCN1)C(=O)O [PGPQ] (H-PGPQ-OH)
9,2410,NC(=O)CC[C@H](NC(=O)CNC(=O)[C@@H]1CCCN1)C(=O)N1CCC[C@H]1C(=O)O [PGQP] (H-PGQP-OH)
10,3640,O=C(O)CNC(=O)[C@@H]1CCCN1 [PG] (H-Pro-Gly-OH; N-terminus and C-terminus assumed)
11,2450,CC(C)[C@H](N)C(=O)NCC(=O)N1CCC[C@H]1C(=O)N1C[C@H](O)C[C@H]1C(=O)NCC(=O)N1CCC[C@H]1C(=O)N[C@@H](C)C(=O)O [VGPOGPA] (HELM PEPTIDE1{V.G.P.[Hyp].G.P.A}$$$$V2.0; N-terminus and C-terminus assumed)

# System: not listed separately
# Assay: Coagulation parameters (PT, APTT, TT) after oral administration
# Assay type: in vivo, rat
# Details: SD rats, 65 μmol/kg bw, n = 6
# Excerpt: The prothrombin time (PT), activated partial thromboplastin time (APTT), and thrombin time (TT) assay methods refer to our previous study. PT, APTT, and TT detection kits (Siemens, Shanghai, China) were employed for the determination of coagulation parameters according to the manufacturer’s instructions.
PT (prothrombin time),TT (thrombin time),Compound
altered the TT and PT significantly,altered the TT and PT significantly,"COC(=O)[C@H](c1ccccc1Cl)N1CCc2sccc2C1 [clopidogrel, Clopidogrel hydrogen sulfate, reference compound]"

# Same assay, conditions: SD rats, 200 μmol/kg b.w., n = 6
row,"coagulation parameters, including PT, TT, and APTT",Compound
1,no significant effect,"N[C@@H](CCC(=O)O)C(=O)N1C[C@H](O)C[C@H]1C(=O)NCC(=O)N[C@@H](CCC(=O)O)C(=O)O [EOGE, Glu-Hyp-Gly-Glu] (HELM PEPTIDE1{E.[Hyp].G.E}$$$$V2.0)"

# Same assay, conditions: SD rats, 300 μmol/kg b.w., n = 6
row,"coagulation parameters, including PT, TT, and APTT",Compound
1,no significant effect,"N[C@@H](CCC(=O)O)C(=O)N1C[C@H](O)C[C@H]1C(=O)NCC(=O)N[C@@H](CCC(=O)O)C(=O)O [EOGE, Glu-Hyp-Gly-Glu] (HELM PEPTIDE1{E.[Hyp].G.E}$$$$V2.0)"

# System: thrombus formation
# Assay: not given
# Details: oral administration; cited from earlier work
# Excerpt: Collagen is a natural source of bioactive peptides and widely distributed in skin and bone tissue, which has a unique triple-helix structure with a repeated amino acid sequence of (Gly-X-Y)n, in which X and Y are typically Pro and Hyp. Hyp-Gly-containing peptides are abundant in collagen, and a large quantity of these peptides could be released after hydrolysis.
row,Compound,thrombus formation in vivo
1,OGEFG [peptide identified from Salmo Salar skin in a previous study],attenuates thrombus formation without bleeding risks

# System: not listed separately
# Assay: Thymus index and spleen index
# Assay type: in vivo, rat
# Details: SD rats, oral, 65 μmol/kg bw, n = 6
# Description: After the rats were sacrificed, the thymuses and spleens were collected and weighed to obtain the thymus index (TI) and spleen index (SI). The TI and SI were calculated according to the following equation: TI/SI (mg/g) = (weight of thymus/spleen)/body weight.
row,thymus index (TI) and spleen index (SI) compared to vehicle group,Compound
1,no significant difference,"COC(=O)[C@H](c1ccccc1Cl)N1CCc2sccc2C1 [clopidogrel, Clopidogrel hydrogen sulfate, reference compound]"

# Same assay, conditions: SD rats, oral, 200 μmol/kg b.w., n = 6
row,thymus index (TI) and spleen index (SI) compared to vehicle group,Compound
1,no significant difference,"N[C@@H](CCC(=O)O)C(=O)N1C[C@H](O)C[C@H]1C(=O)NCC(=O)N[C@@H](CCC(=O)O)C(=O)O [EOGE, Glu-Hyp-Gly-Glu] (HELM PEPTIDE1{E.[Hyp].G.E}$$$$V2.0)"

# Same assay, conditions: SD rats, oral, 300 μmol/kg b.w., n = 6
row,thymus index (TI) and spleen index (SI) compared to vehicle group,Compound
1,no significant difference,"N[C@@H](CCC(=O)O)C(=O)N1C[C@H](O)C[C@H]1C(=O)NCC(=O)N[C@@H](CCC(=O)O)C(=O)O [EOGE, Glu-Hyp-Gly-Glu] (HELM PEPTIDE1{E.[Hyp].G.E}$$$$V2.0)"
